Laboratory results published in patent US12295997B2, “Prostate neoantigens and their uses” (Janssen Biotech, Inc., priority 2020, dated 2025).

Test system: CD8+ and CD4+ T cells (autologous CD3+ Pan-T cells isolated from human normal PBMCs)
Assay: Exogenous autologous normal donor restimulation assay (15-mer overlapping peptide pools on CD1c+ dendritic cells, TNFα/IFNγ flow cytometry)
Format: cell-based
Details: 15-mer overlapping peptide pool; for Max. Fold Change over background CD4+ TNFαINFγ double positive DP / Max. Fold Change over background CD8+ TNFαINFγ double positive DP / Max. Frequency of CD4+ TNFαINFγ DP / Max. Frequency of CD8+ TNFαINFγ DP: Table 28, additional neoantigens, highest across normal donors; for Maximum Fold Change Over Background CD4+ cells / Maximum Fold Change Over Background CD8+ cells / Maximum Frequency of TNFα/IFNγ Double Positive CD4+ T cells / Maximum Frequency of TNFα/IFNγ Double Positive CD8+ T cells: Table 25; for Maximum Fold Change Over Background CD4+ cells: TNFα+IFNγ+ CD4+ T cells; for Maximum Fold Change Over Background CD4+ cells / Maximum Fold Change Over Background CD8+ cells: highest fold change over negative control across normal donors; for Maximum Fold Change Over Background CD8+ cells: TNFα+IFNγ+ CD8+ T cells; for Maximum Frequency of TNFα/IFNγ Double Positive CD4+ T cells / Maximum Frequency of TNFα/IFNγ Double Positive CD8+ T cells: highest frequency across normal donors
Procedure: CD1c+ Dendritic Cells (DC) isolated from human normal PBMCs were thawed using media (IMDM (Gibco) supplemented with glutamine, HEPES, 5% human serum (Sigma), and 1× Pen-Strep). DC cells were resuspended in media supplemented with IL-4 (Peprotech, 80 ng/mL) and GM-CSF (Gibco, 80 ng/mL), plated in 6 well microplates, and rested overnight at 37° C. (5% CO2). The following day, DC cells were counted and plated in a 96 well round bottom microplate at a concentration of 30,000 viable cells per well. Lyophilized peptides (15-mer overlapping peptides) were solubilized in 100% DMSO and pooled by neoantigen to between 5 mg/mL and 20 mg/mL. Neoantigen peptides pools were added to DCs for a final concentration of […] and rested for 2 hours at 37° C. (5% CO2). CEF Peptide Pool “Plus” (Cellular Technologies, Ltd.) was utilized as a positive control and DMSO at the same final concentration as the experimental peptides was utilized as a negative control. After 2 hours, DC cells were irradiated with 50 gray of ionizing radiation. Autologous CD3+ Pan-T cells isolated from human normal PBMCs were thawed using media. Following irradiation, autologous Pan-T cells were added to the irradiated DCs at 300,000 viable cells per well. Human IL-15 (Peprotech) was added to all wells at final concentration of 10 ng/mL.
Plates were incubated at 37° C. (5% CO2) for a total of 12 days. Media was refreshed every 2-3 days with IL-15 (10 ng/mL final concentration) and IL-2 (R&D systems, 10 IU/mL final concentration). On day 11 cells were re-stimulated with identical experimental peptide pools or controls, at same concentration as peptide stimulation on Day 1. Protein Inhibitor Cocktail (eBioscience) was added to every well and plate was incubated overnight at 37° C. (5% CO2).
On day 12, cells were stained for intracellular flow cytometry analysis. The cells were washed with PBS and stained with Live/Dead Fixable Aqua Dead Cell stain (Thermo-Fisher). Following the live/dead stain, cells were blocked using Biotin-Free Fc Receptor Blocker (Accurate Chemical & Scientific Corp). Extracellular cellular flow panel (1 μL/antibody per well in 50 μL) consisted of CD3 PerCP-Cy5.5 (Biolegend), CD4 BV421 (Biolegend), and CD8 APC-Cy7 (Biolegend). After extracellular staining, cells were fixed using Foxp3/fTranscription Factor Staining Buffer Set (eBioscience) and stained for intracellular proteins (1:50 dilution) using TNFα FITC (R&D Systems) and IFNγ BV785 (Biolegend). Cells were washed and resuspended in stain buffer and analyzed using a BD Celesta flow cytometer.
Flow cytometry cell staining analysis was completed using FlowJo v10. Cells were gated on live, singlet, CD3+ cells. The CD8+ and CD4+ T cells were analyzed for TNFα/IFNγ expression and the frequency of double positive TNFα/IFNγ CD8+ and the frequency of double positive TNFα/IFNγ CD4+ T cells were recorded. Responses were assessed to be positive when the frequency of double positive TNFα/IFNγ CD8+ or TNFα/IFNγ CD4+ T cells due to stimulation with an experimental peptide pool was increased greater than or equal to 3-fold over the DMSO only negative control for that donor and at least 0.01%.
Overlapping 15-mer peptides were designed to span each neoantigen incorporated into NeoGAd20 and NeoMVA to assess their ability to activate T cells using the exogenous autologous normal donor restimulation assay described in Example 1 as pools using TNFα and IFNγ production by CD8^+ and CD4^+ T cells as a readout.
Immunogenicity of various additional identified neoantigens was assessed. Overlapping 15-mer peptides were designed to span each neoantigen similarly to what was done in Example 11 to assess their ability to activate T cells using the exogenous autologous normal donor restimulation assay described in Example 1 as pools using TNFα and IFNγ production by CD8^+ and CD4^+ T cells as a readout.

RLTQRLVQGWTPMENRWCGRRAGGQPASSSTRWTTCRAACLLTKWTAGRSQTSIG (listed as Homo sapiens) [AS49, PDF alternative splicing]
Max. Fold Change over background CD4+ TNFαINFγ double positive DP: 184.87
Max. Fold Change over background CD8+ TNFαINFγ double positive DP: 8.67
Max. Frequency of CD4+ TNFαINFγ DP: 0.14
Max. Frequency of CD8+ TNFαINFγ DP: 0.65

MS11 (GSLHFHEVLK; listed as Homo sapiens)
Max. Fold Change over background CD4+ TNFαINFγ double positive DP: 3.4
Max. Fold Change over background CD8+ TNFαINFγ double positive DP: 3.81
Max. Frequency of CD4+ TNFαINFγ DP: 0.13
Max. Frequency of CD8+ TNFαINFγ DP: 0.12

KIQNKNCPD (listed as Homo sapiens) [AS23, ZNF614 alternative splicing]
Maximum Fold Change Over Background CD4+ cells: 5.08
Maximum Fold Change Over Background CD8+ cells: 3.24
Maximum Frequency of TNFα/IFNγ Double Positive CD4+ T cells: 0.01
Maximum Frequency of TNFα/IFNγ Double Positive CD8+ T cells: 0.07

ENASLVFTGSNSPIPACELSSHPAHGISPWIPSPGNEHFHGIKKQVKAIKVE (listed as Homo sapiens) [AS48, SYT17 alternative splicing]
Max. Fold Change over background CD4+ TNFαINFγ double positive DP: 13.45
Max. Fold Change over background CD8+ TNFαINFγ double positive DP: 9.21
Max. Frequency of CD4+ TNFαINFγ DP: 0.13
Max. Frequency of CD8+ TNFαINFγ DP: 0.29

VVGRRHETAPQPLLVPDRAGGEGGA (listed as Homo sapiens) [AS5, DHDH alternative splicing]
Max. Fold Change over background CD4+ TNFαINFγ double positive DP: 8.71
Max. Fold Change over background CD8+ TNFαINFγ double positive DP: 2.13
Max. Frequency of CD4+ TNFαINFγ DP: 0.1
Max. Frequency of CD8+ TNFαINFγ DP: 0.16

DYWAQKEKGSSSFLRPSC (listed as Homo sapiens) [AS7, ACSM1 alternative splicing]
Maximum Fold Change Over Background CD4+ cells: 2.50
Maximum Fold Change Over Background CD8+ cells: 52.60
Maximum Frequency of TNFα/IFNγ Double Positive CD4+ T cells: 0.045
Maximum Frequency of TNFα/IFNγ Double Positive CD8+ T cells: 2.630

MS10 (TVRAILL; listed as Homo sapiens)
Max. Fold Change over background CD4+ TNFαINFγ double positive DP: 74.17
Max. Fold Change over background CD8+ TNFαINFγ double positive DP: 3.42
Max. Frequency of CD4+ TNFαINFγ DP: 0.28
Max. Frequency of CD8+ TNFαINFγ DP: 0.13

KMHFSLKEHPPPPCPP (listed as Homo sapiens) [FUS19, GTF2F1->PSPN gene fusion]
Maximum Fold Change Over Background CD4+ cells: 3.15
Maximum Fold Change Over Background CD8+ cells: 1.88
Maximum Frequency of TNFα/IFNγ Double Positive CD4+ T cells: 0.013
Maximum Frequency of TNFα/IFNγ Double Positive CD8+ T cells: 0.030

VLRFLDLKVRYLHS (listed as Homo sapiens) [AS15, LRRC45 alternative splicing]
Maximum Fold Change Over Background CD4+ cells: 9.17
Maximum Fold Change Over Background CD8+ cells: 4.36
Maximum Frequency of TNFα/IFNγ Double Positive CD4+ T cells: 0.110
Maximum Frequency of TNFα/IFNγ Double Positive CD8+ T cells: 0.061

GLNLNTDRPGGYSYSIWWKNNAKNR (listed as Homo sapiens) [AS17, MPHOSPH9 alternative splicing]
Max. Fold Change over background CD4+ TNFαINFγ double positive DP: 3.18
Max. Fold Change over background CD8+ TNFαINFγ double positive DP: 2.38
Max. Frequency of CD4+ TNFαINFγ DP: 0.01
Max. Frequency of CD8+ TNFαINFγ DP: 0.07

LELELSEGVCFRLR (listed as Homo sapiens) [FUS10, DIP2A->DIP2A-IT1 gene fusion]
Max. Fold Change over background CD4+ TNFαINFγ double positive DP: 10.86
Max. Fold Change over background CD8+ TNFαINFγ double positive DP: 2.42
Max. Frequency of CD4+ TNFαINFγ DP: 0.04
Max. Frequency of CD8+ TNFαINFγ DP: 0.09

FARKMLEKVHRQHLQLSHNSQE (listed as Homo sapiens) [AS12, EVPL alternative splicing]
Max. Fold Change over background CD4+ TNFαINFγ double positive DP: 7.32
Max. Fold Change over background CD8+ TNFαINFγ double positive DP: 6.03
Max. Frequency of CD4+ TNFαINFγ DP: 0.28
Max. Frequency of CD8+ TNFαINFγ DP: 0.19

GEVELSEGGEGQRHLAFPWACSGPGWRGVCCAAVEPA (listed as Homo sapiens) [AS32, TONSL alternative splicing]
Max. Fold Change over background CD4+ TNFαINFγ double positive DP: 2.04
Max. Fold Change over background CD8+ TNFαINFγ double positive DP: 3.81
Max. Frequency of CD4+ TNFαINFγ DP: 0.08
Max. Frequency of CD8+ TNFαINFγ DP: 0.12

KENDVREVCDVYLQMQIFFHFKFRSYFH (listed as Homo sapiens) [AS10, CHRNA5 alternative splicing]
Max. Fold Change over background CD4+ TNFαINFγ double positive DP: 3.97
Max. Fold Change over background CD8+ TNFαINFγ double positive DP: 4.33
Max. Frequency of CD4+ TNFαINFγ DP: 0.23
Max. Frequency of CD8+ TNFαINFγ DP: 0.08

LTFLDFIQVTLRVMSGSQMENGSSYFFKPFSWGLGVGLSAWLCVMLT (listed as Homo sapiens) [AS1, ABCC4 alternative splicing]
Max. Fold Change over background CD4+ TNFαINFγ double positive DP: 3.57
Max. Fold Change over background CD8+ TNFαINFγ double positive DP: 8.15
Max. Frequency of CD4+ TNFαINFγ DP: 0.02
Max. Frequency of CD8+ TNFαINFγ DP: 0.11

IARELHQFAFDLLIKSH (listed as Homo sapiens) [Neoantigen M84, AR T878A]
Maximum Fold Change Over Background CD4+ cells: 35.84
Maximum Fold Change Over Background CD8+ cells: 1.39
Maximum Frequency of TNFα/IFNγ Double Positive CD4+ T cells: 0.31
Maximum Frequency of TNFα/IFNγ Double Positive CD8+ T cells: 0.03

VAMMVPDRQVHYDFGL (listed as Homo sapiens) [AS3, DNAH8 alternative splicing]
Maximum Fold Change Over Background CD4+ cells: 3.86
Maximum Fold Change Over Background CD8+ cells: 7.92
Maximum Frequency of TNFα/IFNγ Double Positive CD4+ T cells: 0.054
Maximum Frequency of TNFα/IFNγ Double Positive CD8+ T cells: 0.095

P37 (MAGGVLRRLLCREPDRDGDKGASREETVVPLHIGDPVVLPGIGQCYSALF; listed as Homo sapiens) [Neoantigen P37]
Max. Fold Change over background CD4+ TNFαINFγ double positive DP: 22.78
Max. Fold Change over background CD8+ TNFαINFγ double positive DP: 2.05
Max. Frequency of CD4+ TNFαINFγ DP: 0.09
Max. Frequency of CD8+ TNFαINFγ DP: 0.13

FVQGKDWGLKKFIRRDF (listed as Homo sapiens) [Neoantigen M10, SPOP F133L]
Maximum Fold Change Over Background CD4+ cells: 14.14
Maximum Fold Change Over Background CD8+ cells: 1.89
Maximum Frequency of TNFα/IFNγ Double Positive CD4+ T cells: 0.1
Maximum Frequency of TNFα/IFNγ Double Positive CD8+ T cells: 0.09

CEERGAAGSLISCE (listed as Homo sapiens) [FUS6, TMPRSS2->ERG gene fusion]
Maximum Fold Change Over Background CD4+ cells: 2.27
Maximum Fold Change Over Background CD8+ cells: 3.50
Maximum Frequency of TNFα/IFNγ Double Positive CD4+ T cells: 0.016
Maximum Frequency of TNFα/IFNγ Double Positive CD8+ T cells: 0.056
